From patent US20230355753A1, “BISPECIFIC ANTIBODY AGAINST CD3 AND CD20 IN COMBINATION THERAPY FOR TREATING DIFFUSE LARGE B-CELL LYMPHOMA” (GENMAB A/S, priority 2020, published 2023)
Where two headings read alike, the source gives them in different places.

Experiments:
[1] = test system: R/R B-NHL; assay: Ongoing clinical trial of epcoritamab monotherapy (NCT03625037); type: in vivo
Source text: Epcoritamab as monotherapy is currently in a clinical trial for the treatment of relapsed/refractory (R/R) (ClinicalTrials.gov Identifier: NCT03625037).

[2] = test system: R/R DLBCL eligible for ASCT; type: in vivo; settings: in combination with R-DHAX/C, preliminary
Method: The trial is conducted in 2 parts: dose escalation (Part 1) and expansion (Part 2). Subjects participate in only one part. Both parts consist of a screening period, a treatment period, a safety follow-up period, and a survival follow-up period.
Epcoritamab is initially be administered in combination with R-DHAX/C in a 3-subject cohort. DLTs are evaluated during the first 28 days.
Dexamethasone (40 mg) is administered intravenously or orally on days 1-4 of a cycle once every 3 weeks (Q3W) for cycles 1-3. Cytarabine (2 g/m^2) is administered intravenously on day 1 (usually over 3 hours), repeated after 12 hours (may result in a second dose on day 2 depending on timing of first dose), once every 3 weeks (Q3W) for cycles 1-3. […] Carboplatin (for DHAC) (AUC=5 mg/ml/min; Calvert's formula) is administered intravenously on day 1 once every 3 weeks (Q3W) for cycles 1-3.
CRS is graded according to the ASTCT grading for CRS (Tables 6 and 7), and for treatment of CRS, subjects should receive supportive care. […]

[3] = test system: CD20-expressing Raji-luc tumor cells; settings: even in the presence of an excess of rituximab variant with inert Fc domain (IgG1-RTX-FEAR); cited from earlier work
[4] = test system: primary DLBCL and follicular lymphoma patient biopsies; settings: cited from earlier work

epcoritamab: IgG1 bispecific CD3xCD20 antibody, heavy/light chain pairs SEQ ID NOs: 24/25 and 26/27; CAS 2134641-34-0
tolerated dose ([1]; human, in vivo): at least 48 mg
dose-limiting toxicities ([1]; monotherapy, R/R B-NHL patients, preliminary data): no dose-limiting toxicities reported
responders observed ([2]; escalation phase, as of Sep. 8, 2021, total of 22 patients dosed, non-validated): 4
responders observed ([2]; expansion phase 48 mg, as of Sep. 8, 2021, response data not completely entered): 0
tumor growth in the xenograft model [3]: effectively reduce tumor growth
T-cell-mediated cytotoxicity ([4]; biopsies taken a certain amount of time after administration of an anti-CD20 antibody): induced T-cell-mediated cytotoxicity
tumor cell kill ([4]; biopsy taken 2 weeks after administering the anti-CD20 antibody): up to 40%
